Values joined by “and” are separate entries in the source; they are usually repeats but may differ in a detail not shown here. Identical values can stand only once. Like-named read-outs stand apart in the source and are kept apart here.
Key:
[1] = system: CHO cell line that expresses an antibody; assay: Batch experiment with the substances according to the invention (Example 1); assay type: cell-based, Chinese hamster; details: batch mode, substance 0.5-1 g/l, basal medium glucose 4.7 g/l, glutamine […]
[2] = system: CHO cell line that expresses an antibody; assay: Fed-batch experiment with the substances according to the invention (Example 2, Table 2); assay type: cell-based, Chinese hamster; parameters: Viabil.: concentration or dose not given beside the values
Source text: Feed took place at regular intervals.

[3] = system: CHO cell line that expresses an antibody; details: fed-batch, basal medium 4 mM glutamine, feed with 3 g/l Ala-Gln and 3 g/l Gly-Gln, substance 0.5-1 g/l
Experimental: (§1) A CHO cell line that expresses an antibody was used for the experiments.
The experiments were carried out either in batch mode or in fed-batch mode. When the process was carried out in fed-batch mode, the process was first started in batch mode in the above-mentioned basal medium and cells were cultivated in this manner for 1-4 days. After 1-4 days the cells were supplemented with a feed medium, i.e. the process was switched to fed-batch mode. Feed took place at regular intervals. In fed-batch experiments, a protein-free and serum-free feed medium from the company HyQ (R05.2 supplement, Cat. No.: SH30584.04, Lot No.: APF21457G) was used.
From the stock solutions, the substances were put at the desired final concentration in culture tubes. The various culture tubes prepared in this way were finally inoculated with the antibody-producing CHO-clone at a target inoculation cell concentration (1-3×10^5/ml). For this, the corresponding amount of inoculum cells was calculated and the required amount of inoculum cell suspension was centrifuged. […] In this way the desired inoculation cell concentration was adjusted in the cell suspension being investigated. The cell suspension thus prepared was proportioned in the culture tubes, which were provided with the substances according to the invention beforehand. The culture tubes were incubated at 37° C., and 8% CO2 atmosphere, with shaking. The culture tubes were cultivated for 8-11 days in the batch mode or in the fed-batch mode. Samples for offline measurement of the variables were taken from the culture vessels at regular intervals, for example daily or on every third day. The metabolic variables and cell concentrations of the samples were measured. Cell concentration and cell vitality were measured with a CeDex instrument. The metabolic variables (glucose, lactate, glutamine and ammonium) were determined with an analyzer (BioProfile 100).
(§2) The following final concentrations of the substances according to the invention were established in a nutrient medium after inoculation:
The substances according to the invention were tested under fed-batch conditions. […] The feed medium used was from the company HyQ (R05.2 supplement, Cat. No.: SH30584.04, Lot No.: APF21457G). 3 g/l alanyl-glutamine (Ala-Gin) and 3 g/l glycyl-glutamine (Gly-Gln) were added to the feed medium.

[4] = system: CHO cell line that expresses an antibody; details: fed-batch, glutamine-free basal and feed media, substance 0.5-1 g/l
Source text: as §1
This is a serum-free, protein-free nutrient medium. It is a ready-made, sterile-filtered nutrient medium.
After 1-4 days the cells were supplemented with a feed medium, i.e. the process was switched to fed-batch mode. Feed took place at regular intervals. In fed-batch experiments, a protein-free and serum-free feed medium from the company HyQ (R05.2 supplement, Cat. No.: SH30584.04, Lot No.: APF21457G) was used.
All substances (chemicals) used according to the invention were obtained from the company Sigma and stock solutions were prepared from them. From the stock solutions, the substances were put at the desired final concentration in culture tubes. The various culture tubes prepared in this way were finally inoculated with the antibody-producing CHO-clone at a target inoculation cell concentration (1-3×10^5/ml). For this, the corresponding amount of inoculum cells was calculated and the required amount of inoculum cell suspension was centrifuged. […] In this way the desired inoculation cell concentration was adjusted in the cell suspension being investigated. The cell suspension thus prepared was proportioned in the culture tubes, which were provided with the substances according to the invention beforehand. The culture tubes were incubated at 37° C., and 8% CO2 atmosphere, with shaking. The culture tubes were cultivated for 8-11 days in the batch mode or in the fed-batch mode. Samples for offline measurement of the variables were taken from the culture vessels at regular intervals, for example daily or on every third day. The metabolic variables and cell concentrations of the samples were measured. Cell concentration and cell vitality were measured with a CeDex instrument. The metabolic variables (glucose, lactate, glutamine and ammonium) were determined with an analyzer (BioProfile 100).
as §2
The substances according to the invention were tested under fed-batch conditions. […] The feed medium used was from the company HyQ (R05.2 supplement, Cat. No.: SH30584.04, Lot No.: APF21457G). The feed medium was glutamine-free (Table 4).

[5] = system: CHO cell line that expresses an antibody; details: fed-batch; substance 1 g/l; supernatant, ELISA; absolute value of the control set at 100%
Experimental: A CHO cell line that expresses an antibody was used for the experiments. The product concentration (antibody concentration) in the cell supernatant was determined by ELISA.
From selected samples, the product concentration (antibody concentration) in the supernatant was determined by ELISA (Table 3)

## CC(O)C(=O)[O-].[Na+] (centres unmarked) [Sodium lactate]
[1]; day 0
  Gln: 1.53 mM
  Glucose: 4.69 g/L
  Lactate: 1 g/L
  NH4: 1.22 mM
  Specific Glutamin consumption (Gln/VCD): 1.49
  Specific ammonia production (NH4/VCD): 1.18
  Specific glucose consumption (Gluc/VCD): 4.55
  Specific lactate production (Lac/VCD): 0.97
  Total Cell Density TCD: 1.07 E5/ml
  Viabil.: 96%
  Viable Cell Density (VCD): 1.03 E5/ml
[1]; day 3
  Gln: 1.12 mM
  Glucose: 4.44 g/L
  Lactate: 1.15 g/L
  NH4: 1.65 mM
  Specific Glutamin consumption (Gln/VCD): 0.19
  Specific ammonia production (NH4/VCD): 0.28
  Specific glucose consumption (Gluc/VCD): 0.74
  Specific lactate production (Lac/VCD): 0.19
  Total Cell Density TCD: 6 E5/ml
  Viabil.: 100%
  Viable Cell Density (VCD): 6 E5/ml
[1]; day 6
  Gln: 0.31 mM
  Glucose: 2.82 g/L
  Lactate: 1.49 g/L
  NH4: 2.07 mM
  Specific Glutamin consumption (Gln/VCD): 0.01
  Specific ammonia production (NH4/VCD): 0.05
  Specific glucose consumption (Gluc/VCD): 0.07
  Specific lactate production (Lac/VCD): 0.04
  Total Cell Density TCD: 41 E5/ml
  Viabil.: 99%
  Viable Cell Density (VCD): 40.6 E5/ml
[1]; day 8
  Gln: 0.35 mM
  Glucose: 1.79 g/L
  Lactate: 1.47 g/L
  NH4: 2.63 mM
  Specific Glutamin consumption (Gln/VCD): 0.02
  Specific ammonia production (NH4/VCD): 0.12
  Specific glucose consumption (Gluc/VCD): 0.08
  Specific lactate production (Lac/VCD): 0.07
  Total Cell Density TCD: 23.7 E5/ml
  Viabil.: 90%
  Viable Cell Density (VCD): 21.3 E5/ml
[1]; day 11
  Gln: 0.5 mM
  Glucose: 0.55 g/L
  Lactate: 1.04 g/L
  NH4: 3.12 mM
  Specific Glutamin consumption (Gln/VCD): 0.04
  Specific ammonia production (NH4/VCD): 0.27
  Specific glucose consumption (Gluc/VCD): 0.05
  Specific lactate production (Lac/VCD): 0.09
  Total Cell Density TCD: 24.5 E5/ml
  Viabil.: 47%
  Viable Cell Density (VCD): 11.4 E5/ml
[2]; day 0, fed-batch
  Total Cell Density TCD: 1.5 E5/ml
  Viabil.: 91%
  Viable Cell Density (VCD): 1.37 E5/ml
[2]; day 2, fed-batch
  Total Cell Density TCD: 4.6 E5/ml and 4 E5/ml
  Viabil.: 98% and 95%
  Viable Cell Density (VCD): 4.5 E5/ml and 3.8 E5/ml
[2]; day 5, fed-batch
  Total Cell Density TCD: 13.1 E5/ml and 14.3 E5/ml
  Viabil.: 98%
  Viable Cell Density (VCD): 12.8 E5/ml and 14 E5/ml
[2]; day 8, fed-batch
  Total Cell Density TCD: 52.4 E5/ml and 54.7 E5/ml
  Viabil.: 96% and 95%
  Viable Cell Density (VCD): 50.2 E5/ml and 52 E5/ml
[3]; day 0
  Total Cell Density TCD: 1.1 E5/ml
  Viabil.: 96%
  Viable Cell Density (VCD): 1.0 E5/ml
[3]; day 3
  Total Cell Density TCD: 7.9 E5/ml
  Viabil.: 96%
  Viable Cell Density (VCD): 7.6 E5/ml
[3]; day 5
  Total Cell Density TCD: 45.2 E5/ml
  Viabil.: 96%
  Viable Cell Density (VCD): 43.3 E5/ml
[3]; day 7
  Total Cell Density TCD: 41.1 E5/ml
  Viabil.: 83%
  Viable Cell Density (VCD): 34.3 E5/ml
[3]; day 9
  Total Cell Density TCD: 34.7 E5/ml
  Viabil.: 73%
  Viable Cell Density (VCD): 25.2 E5/ml
[4]; day 0
  Sp. Gluc cons.: 93
  Sp. NH4 prod: 98 % of control
  TCD: 100 % of control
  VCD: 100 % of control
  Viabil.: 94%
[4]; day 3
  Sp. Gluc cons.: 66
  Sp. Lactate prod.: 72 % of control
  Sp. NH4 prod: 63 % of control
  TCD: 140 % of control
  VCD: 148 % of control
  Viabil.: 94%
[4]; day 5
  Sp. Gluc cons.: 74
  Sp. Lactate prod.: 66 % of control
  Sp. NH4 prod: 72 % of control
  TCD: 128 % of control
  VCD: 136 % of control
  Viabil.: 97%
[4]; day 7
  Sp. Gluc cons.: 62
  Sp. Lactate prod.: 57 % of control
  Sp. NH4 prod: 66 % of control
  TCD: 136 % of control
  VCD: 147 % of control
  Viabil.: 95%
[4]; day 9
  Sp. Gluc cons.: 71
  Sp. Lactate prod.: 65 % of control
  Sp. NH4 prod: 73 % of control
  TCD: 131 % of control
  VCD: 133 % of control
  Viabil.: 95%
[5]
  Antibody concentration: 124%

## O=C([O-])CCC(=O)[O-].[Na+].[Na+] [Sodium succinate]
[1]; day 0
  Gln: 1.53 mM
  Glucose: 4.69 g/L
  Lactate: 0 g/L
  NH4: 1.22 mM
  Specific Glutamin consumption (Gln/VCD): 1.49
  Specific ammonia production (NH4/VCD): 1.18
  Specific glucose consumption (Gluc/VCD): 4.55
  Specific lactate production (Lac/VCD): 0.00
  Total Cell Density TCD: 1.07 E5/ml
  Viabil.: 96%
  Viable Cell Density (VCD): 1.03 E5/ml
[1]; day 3
  Gln: 0.76 mM
  Glucose: 3.82 g/L
  Lactate: 0.86 g/L
  NH4: 1.84 mM
  Specific Glutamin consumption (Gln/VCD): 0.09
  Specific ammonia production (NH4/VCD): 0.22
  Specific glucose consumption (Gluc/VCD): 0.47
  Specific lactate production (Lac/VCD): 0.10
  Total Cell Density TCD: 8.3 E5/ml
  Viabil.: 99%
  Viable Cell Density (VCD): 8.2 E5/ml
[1]; day 6
  Gln: 0.31 mM
  Glucose: 2.4 g/L
  Lactate: 1.19 g/L
  NH4: 2.25 mM
  Specific Glutamin consumption (Gln/VCD): 0.01
  Specific ammonia production (NH4/VCD): 0.05
  Specific glucose consumption (Gluc/VCD): 0.05
  Specific lactate production (Lac/VCD): 0.02
  Total Cell Density TCD: 49.1 E5/ml
  Viabil.: 98%
  Viable Cell Density (VCD): 48.1 E5/ml
[1]; day 8
  Gln: 0.36 mM
  Glucose: 1.44 g/L
  Lactate: 1.14 g/L
  NH4: 2.33 mM
  Specific Glutamin consumption (Gln/VCD): 0.01
  Specific ammonia production (NH4/VCD): 0.09
  Specific glucose consumption (Gluc/VCD): 0.06
  Specific lactate production (Lac/VCD): 0.04
  Total Cell Density TCD: 29.8 E5/ml
  Viabil.: 86%
  Viable Cell Density (VCD): 25.6 E5/ml
[1]; day 11
  Gln: 0.52 mM
  Glucose: 0.22 g/L
  Lactate: 1.59 g/L
  NH4: 3 mM
  Specific Glutamin consumption (Gln/VCD): 0.03
  Specific ammonia production (NH4/VCD): 0.18
  Specific glucose consumption (Gluc/VCD): 0.01
  Specific lactate production (Lac/VCD): 0.10
  Total Cell Density TCD: 32.8 E5/ml
  Viabil.: 50%
  Viable Cell Density (VCD): 16.3 E5/ml
[2]; day 0, fed-batch
  Total Cell Density TCD: 1.5 E5/ml
  Viabil.: 91%
  Viable Cell Density (VCD): 1.37 E5/ml
[2]; day 2, fed-batch
  Total Cell Density TCD: 4.2 E5/ml and 4.4 E5/ml
  Viabil.: 98%
  Viable Cell Density (VCD): 4.1 E5/ml and 4.3 E5/ml
[2]; day 5, fed-batch
  Total Cell Density TCD: 18.1 E5/ml
  Viabil.: 97%
  Viable Cell Density (VCD): 17.5 E5/ml
[2]; day 8, fed-batch
  Total Cell Density TCD: 62.2 E5/ml and 64.1 E5/ml
  Viabil.: 90% and 92%
  Viable Cell Density (VCD): 55.7 E5/ml and 58.8 E5/ml
[3]; day 0
  Total Cell Density TCD: 1.1 E5/ml
  Viabil.: 96%
  Viable Cell Density (VCD): 1.0 E5/ml
[3]; day 3
  Total Cell Density TCD: 9.3 E5/ml
  Viabil.: 95%
  Viable Cell Density (VCD): 8.8 E5/ml
[3]; day 5
  Total Cell Density TCD: 56.7 E5/ml
  Viabil.: 96%
  Viable Cell Density (VCD): 54.3 E5/ml
[3]; day 7
  Total Cell Density TCD: 42.0 E5/ml
  Viabil.: 82%
  Viable Cell Density (VCD): 34.5 E5/ml
[3]; day 9
  Total Cell Density TCD: 35.9 E5/ml
  Viabil.: 74%
  Viable Cell Density (VCD): 26.7 E5/ml
[4]; day 0
  Sp. Gluc cons.: 95
  Sp. NH4 prod: 98 % of control
  TCD: 100 % of control
  VCD: 100 % of control
  Viabil.: 94%
[4]; day 3
  Sp. Gluc cons.: 74
  Sp. Lactate prod.: 75 % of control
  Sp. NH4 prod: 72 % of control
  TCD: 124 % of control
  VCD: 132 % of control
  Viabil.: 95%
[4]; day 5
  Sp. Gluc cons.: 88
  Sp. Lactate prod.: 93 % of control
  Sp. NH4 prod: 90 % of control
  TCD: 108 % of control
  VCD: 111 % of control
  Viabil.: 95%
[4]; day 7
  Sp. Gluc cons.: 78
  Sp. Lactate prod.: 89 % of control
  Sp. NH4 prod: 85 % of control
  TCD: 118 % of control
  VCD: 117 % of control
  Viabil.: 87%
[4]; day 9
  Sp. Gluc cons.: 69
  Sp. Lactate prod.: 78 % of control
  Sp. NH4 prod: 74 % of control
  TCD: 134 % of control
  VCD: 136 % of control
  Viabil.: 94%
[5]
  Antibody concentration: 127%
